One may read the Ki as the dissociation constant of the complex between target and ligand, obtained from inhibition or displacement. Lower therefore signals higher affinity. A word on the EC50: it is the concentration giving half of the maximal effect. A low value points to higher potency in that assay. As usually defined, the Emax is the maximal effect, on the per cent scale that the assay sets.

5-HT1D, sequence (P28221 whole entry, species assumed): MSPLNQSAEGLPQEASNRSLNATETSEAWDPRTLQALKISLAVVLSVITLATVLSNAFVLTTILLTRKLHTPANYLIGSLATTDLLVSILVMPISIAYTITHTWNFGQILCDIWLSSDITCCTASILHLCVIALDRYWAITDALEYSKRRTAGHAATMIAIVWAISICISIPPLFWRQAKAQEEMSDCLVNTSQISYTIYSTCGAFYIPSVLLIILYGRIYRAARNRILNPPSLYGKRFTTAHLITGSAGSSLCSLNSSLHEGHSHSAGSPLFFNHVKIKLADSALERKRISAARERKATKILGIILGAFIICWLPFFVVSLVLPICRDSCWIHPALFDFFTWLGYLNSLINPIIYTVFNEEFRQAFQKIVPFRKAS

One assay has as its target 5-HT1D (Homo sapiens, UniProt P28221). Briefly: Competitive radioligand binding (NIMH PDSP).
Conditions: not given
The procedure:
(§1) Method 1: Competitive binding experiments were performed by the National Institute of Mental Health Psychoactive Drug Screening Program (NIMH PDSP) using described methods or 5-HT2A experiments performed using [3H]-ketanserin displacement in human 5-HT2A expressing membranes. Target compounds were dissolved in DMSO and an initial screen performed to assess displacement of the radioligand from target receptors at a concentration of 10,000 nM. […] For the Ki experiments, compounds were always tested in triplicate on separate plates. Each plate also contained a known ligand for the receptor as a positive control.
`COc1cc([N+](=O)[O-])c(OC)cc1CCN` [2C-N (1), 2-(2,5-dimethoxy-4-nitrophenyl)ethan-1-amine, reference compound] showed a Ki of 832 nM.

The compound `COc1cc([N+](=O)[O-])c(OC)cc1CCNCc1cccc2ccccc12` [25N-N-1-Nap (16), [2-(2,5-dimethoxy-4-nitrophenyl)ethyl][(naphthalen-1-yl)methyl]amine] gave a Ki of 871 nM.

The target in a further assay is 5-HT1B (Homo sapiens, UniProt P28222). As to the kind of experiment: Competitive radioligand binding (NIMH PDSP).
5-HT1B, sequence (P28222 whole entry, species assumed): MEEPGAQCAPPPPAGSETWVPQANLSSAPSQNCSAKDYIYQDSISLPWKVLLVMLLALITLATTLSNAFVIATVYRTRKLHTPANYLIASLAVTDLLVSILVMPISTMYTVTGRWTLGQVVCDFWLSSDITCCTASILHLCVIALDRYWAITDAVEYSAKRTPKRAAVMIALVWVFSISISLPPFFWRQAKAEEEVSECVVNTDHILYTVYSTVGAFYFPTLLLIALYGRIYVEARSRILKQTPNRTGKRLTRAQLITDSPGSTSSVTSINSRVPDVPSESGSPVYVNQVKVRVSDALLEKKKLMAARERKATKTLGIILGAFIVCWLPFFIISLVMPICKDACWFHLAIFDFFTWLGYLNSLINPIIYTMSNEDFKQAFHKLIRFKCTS
Conditions: not given
The procedure: as §1
`COc1cc([N+](=O)[O-])c(OC)cc1CCN` [2C-N (1), 2-(2,5-dimethoxy-4-nitrophenyl)ethan-1-amine, reference compound]: the Ki was above 10000 nM.

`COc1cc([N+](=O)[O-])c(OC)cc1CCNCc1cccc2ccccc12` [25N-N-1-Nap (16), [2-(2,5-dimethoxy-4-nitrophenyl)ethyl][(naphthalen-1-yl)methyl]amine] registered a Ki above 10000 nM.

The target of another assay is 5-HT1e (Homo sapiens, UniProt P28566). As to the kind of experiment: Competitive radioligand binding (NIMH PDSP).
5-HT1e, sequence (P28566 whole entry, species assumed): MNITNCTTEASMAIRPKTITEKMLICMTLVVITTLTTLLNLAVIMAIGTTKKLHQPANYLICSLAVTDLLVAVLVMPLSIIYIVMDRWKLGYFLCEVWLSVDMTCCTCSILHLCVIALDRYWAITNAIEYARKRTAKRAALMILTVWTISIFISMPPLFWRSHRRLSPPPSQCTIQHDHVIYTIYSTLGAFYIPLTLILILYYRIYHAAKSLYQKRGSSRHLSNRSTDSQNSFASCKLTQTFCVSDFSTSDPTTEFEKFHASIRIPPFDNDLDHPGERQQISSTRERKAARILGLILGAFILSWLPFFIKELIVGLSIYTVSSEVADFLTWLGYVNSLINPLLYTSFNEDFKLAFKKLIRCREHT
Conditions: not given
The procedure: as §1
The compound `COc1cc([N+](=O)[O-])c(OC)cc1CCN` [2C-N (1), 2-(2,5-dimethoxy-4-nitrophenyl)ethan-1-amine, reference compound] gave a Ki of 676 nM. This lies in the sub-micromolar range.

In turn, `COc1cc([N+](=O)[O-])c(OC)cc1CCNCc1cccc2ccccc12` [25N-N-1-Nap (16), [2-(2,5-dimethoxy-4-nitrophenyl)ethyl][(naphthalen-1-yl)methyl]amine] returned a Ki above 10000 nM.

A further assay concerns the target T1, 5-HT1A (Homo sapiens, UniProt P08908).
T1 sequence (P08908 1-422): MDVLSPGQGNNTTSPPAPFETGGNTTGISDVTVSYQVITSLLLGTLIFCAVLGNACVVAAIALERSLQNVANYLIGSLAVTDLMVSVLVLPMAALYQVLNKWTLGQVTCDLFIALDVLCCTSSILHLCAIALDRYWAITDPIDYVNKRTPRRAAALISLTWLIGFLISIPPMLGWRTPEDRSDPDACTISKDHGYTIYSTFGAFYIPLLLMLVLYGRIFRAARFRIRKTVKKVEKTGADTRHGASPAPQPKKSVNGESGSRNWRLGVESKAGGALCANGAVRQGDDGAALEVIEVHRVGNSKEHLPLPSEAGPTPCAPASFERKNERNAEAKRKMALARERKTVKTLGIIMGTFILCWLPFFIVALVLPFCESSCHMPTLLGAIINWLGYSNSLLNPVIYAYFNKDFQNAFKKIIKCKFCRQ
As to the kind of experiment: Competitive radioligand binding (NIMH PDSP).
Conditions: not given
As for the experimental part:
as §1
As to `COc1cc([N+](=O)[O-])c(OC)cc1CCN` [2C-N (1), 2-(2,5-dimethoxy-4-nitrophenyl)ethan-1-amine, reference compound], the Ki was 1450 nM.

With `COc1cc([N+](=O)[O-])c(OC)cc1CCNCc1cccc2ccccc12` [25N-N-1-Nap (16), [2-(2,5-dimethoxy-4-nitrophenyl)ethyl][(naphthalen-1-yl)methyl]amine], the Ki was 240 nM.

For a further assay, the target named is T2, 5-HT2A (Homo sapiens, UniProt P28223). As to the kind of experiment: Competitive radioligand binding (NIMH PDSP).
T2 sequence (P28223 whole entry): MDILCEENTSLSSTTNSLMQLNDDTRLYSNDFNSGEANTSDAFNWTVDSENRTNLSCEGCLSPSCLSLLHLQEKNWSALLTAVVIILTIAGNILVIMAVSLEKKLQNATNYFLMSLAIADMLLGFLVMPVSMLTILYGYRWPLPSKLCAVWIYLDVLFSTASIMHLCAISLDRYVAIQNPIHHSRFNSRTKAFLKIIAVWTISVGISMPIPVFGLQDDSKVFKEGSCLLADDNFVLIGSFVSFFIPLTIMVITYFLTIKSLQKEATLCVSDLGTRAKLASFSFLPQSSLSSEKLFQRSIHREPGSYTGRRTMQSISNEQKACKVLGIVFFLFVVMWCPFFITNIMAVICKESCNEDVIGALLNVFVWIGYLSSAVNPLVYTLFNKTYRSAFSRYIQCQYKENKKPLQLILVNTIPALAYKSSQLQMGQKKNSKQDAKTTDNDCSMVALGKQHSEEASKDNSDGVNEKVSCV
Conditions: not given
The procedure: as §1
In turn, `COc1cc([N+](=O)[O-])c(OC)cc1CCN` [2C-N (1), 2-(2,5-dimethoxy-4-nitrophenyl)ethan-1-amine, reference compound] had an inhibition constant Ki of 72.4 nM. That is a double-digit nanomolar value.

With `COc1cc([N+](=O)[O-])c(OC)cc1CCNCc1cccc2ccccc12` [25N-N-1-Nap (16), [2-(2,5-dimethoxy-4-nitrophenyl)ethyl][(naphthalen-1-yl)methyl]amine], the affinity corresponds to a Ki of 1.15 nM.

The target of the next assay is T3, 5-HT3 (Homo sapiens, UniProt P46098).
T3 sequence (P46098 24-478): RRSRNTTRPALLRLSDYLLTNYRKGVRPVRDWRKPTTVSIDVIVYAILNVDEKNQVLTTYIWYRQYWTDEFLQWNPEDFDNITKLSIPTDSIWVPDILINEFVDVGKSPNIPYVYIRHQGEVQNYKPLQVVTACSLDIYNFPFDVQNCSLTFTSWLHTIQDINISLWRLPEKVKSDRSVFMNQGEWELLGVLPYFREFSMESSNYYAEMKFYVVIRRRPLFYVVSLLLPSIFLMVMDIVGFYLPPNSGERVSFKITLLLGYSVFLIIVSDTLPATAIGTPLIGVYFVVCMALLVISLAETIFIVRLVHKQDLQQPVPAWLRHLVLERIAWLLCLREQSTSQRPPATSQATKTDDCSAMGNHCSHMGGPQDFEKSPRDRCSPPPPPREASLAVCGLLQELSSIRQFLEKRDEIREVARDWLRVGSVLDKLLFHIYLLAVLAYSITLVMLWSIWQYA
As to the kind of experiment: Competitive radioligand binding (NIMH PDSP).
Conditions: not given
The procedure: as §1
As for `COc1cc([N+](=O)[O-])c(OC)cc1CCN` [2C-N (1), 2-(2,5-dimethoxy-4-nitrophenyl)ethan-1-amine, reference compound], the Ki was above 10000 nM.

For the compound `COc1cc([N+](=O)[O-])c(OC)cc1CCNCc1cccc2ccccc12` [25N-N-1-Nap (16), [2-(2,5-dimethoxy-4-nitrophenyl)ethyl][(naphthalen-1-yl)methyl]amine], the Ki is above 10000 nM.

In another assay the test system is 5-HT2A. Briefly: Ca2+ flux assay, 5-HT2A. It is filed as cell-based, human. Particulars: Gq/11 Ca2+ mobilization; higher number = skewed towards 5-HT2A. A general note: Calcium flux is commonly read through the fluorescence of an indicator in the cells.
Consider `COc1cc([N+](=O)[O-])c(OC)cc1CCN` [2C-N (1), 2-(2,5-dimethoxy-4-nitrophenyl)ethan-1-amine, reference compound], for which the “5-HT2A/5-HT2c Selectivity Factor ΔLog(Emax/EC50)” value is recorded as 19.1.

`COc1cc([N+](=O)[O-])c(OC)cc1CCNCc1cccc2ccccc12` [25N-N-1-Nap (16), [2-(2,5-dimethoxy-4-nitrophenyl)ethyl][(naphthalen-1-yl)methyl]amine]: the “5-HT2A/5-HT2c Selectivity Factor ΔLog(Emax/EC50)” value is reported as 5-HT2A Selective.

Another assay deals with T4, 5-HT2B (Homo sapiens, UniProt P41595). As to the kind of experiment: Ca2+ flux assay, 5-HT2B. Details: expressed in transfected cells. It is filed as cell-based.
T4 sequence (P41595 whole entry): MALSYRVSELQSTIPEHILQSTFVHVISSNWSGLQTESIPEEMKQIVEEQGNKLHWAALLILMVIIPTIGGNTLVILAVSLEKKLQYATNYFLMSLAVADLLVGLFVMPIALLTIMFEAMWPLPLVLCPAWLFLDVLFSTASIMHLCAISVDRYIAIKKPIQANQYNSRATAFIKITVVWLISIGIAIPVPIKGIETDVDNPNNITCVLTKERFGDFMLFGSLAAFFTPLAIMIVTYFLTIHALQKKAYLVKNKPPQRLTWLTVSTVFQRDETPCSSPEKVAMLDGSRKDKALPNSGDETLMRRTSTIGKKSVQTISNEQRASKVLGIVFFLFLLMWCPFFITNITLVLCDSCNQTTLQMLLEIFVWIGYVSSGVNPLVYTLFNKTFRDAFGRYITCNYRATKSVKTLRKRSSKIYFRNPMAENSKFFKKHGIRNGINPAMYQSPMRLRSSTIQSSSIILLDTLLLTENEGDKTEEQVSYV
Conditions: not given
`COc1cc([N+](=O)[O-])c(OC)cc1CCN` [2C-N (1), 2-(2,5-dimethoxy-4-nitrophenyl)ethan-1-amine, reference compound] came in with an EC50 of 50.3 nM. This counts as double-digit nanomolar.

The same assay, now with this note: Ca2+ flux.
In the case of `COc1cc([N+](=O)[O-])c(OC)cc1CCNCc1cccc2ccccc12` [25N-N-1-Nap (16), [2-(2,5-dimethoxy-4-nitrophenyl)ethyl][(naphthalen-1-yl)methyl]amine], the “5-HT2B EC50, nM” value is “No activity”.

The assay is the same for the next values; noted with them: read-out: 5-HT2B Emax % 5-HT; Ca2+ flux.
For the compound `COc1cc([N+](=O)[O-])c(OC)cc1CCN` [2C-N (1), 2-(2,5-dimethoxy-4-nitrophenyl)ethan-1-amine, reference compound], the Emax stood at 72 ± 3%.

Take `COc1cc([N+](=O)[O-])c(OC)cc1CCNCc1cccc2ccccc12` [25N-N-1-Nap (16), [2-(2,5-dimethoxy-4-nitrophenyl)ethyl][(naphthalen-1-yl)methyl]amine]: the Emax is below 10%.

The next assay addresses T2, 5-HT2A. As to the kind of experiment: Ca2+ flux assay, 5-HT2A. Type of assay: cell-based. Particulars: 5-HT2A (pEC50 ± SEM), Ca2+ flux. Further details: expressed in transfected cells.
Consider `COc1cc([N+](=O)[O-])c(OC)cc1CCN` [2C-N (1), 2-(2,5-dimethoxy-4-nitrophenyl)ethan-1-amine, reference compound], for which the EC50 came out at 4.9 nM.

Still in this assay, the particulars now being: 5-HT2A EC50, nM, Ca2+ flux.
As for `COc1cc([N+](=O)[O-])c(OC)cc1CCN` [2C-N (1), 2-(2,5-dimethoxy-4-nitrophenyl)ethan-1-amine, reference compound], the EC50 was determined as 4.56 nM.

Staying with this assay, now noted: Ca2+ flux.
Take `COc1cc([N+](=O)[O-])c(OC)cc1CCNCc1cccc2ccccc12` [25N-N-1-Nap (16), [2-(2,5-dimethoxy-4-nitrophenyl)ethyl][(naphthalen-1-yl)methyl]amine]: the “5-HT2A EC50, nM” value is on record as “No activity”.

The assay is the same for the next values; noted with them: read-out: 5-HT2A Emax % 5-HT, Ca2+ flux.
On to `COc1cc([N+](=O)[O-])c(OC)cc1CCN` [2C-N (1), 2-(2,5-dimethoxy-4-nitrophenyl)ethan-1-amine, reference compound], for which the Emax amounted to 100 ± 1%.

Turning to `COc1cc([N+](=O)[O-])c(OC)cc1CCNCc1cccc2ccccc12` [25N-N-1-Nap (16), [2-(2,5-dimethoxy-4-nitrophenyl)ethyl][(naphthalen-1-yl)methyl]amine], the Emax was below 10%.

Another assay concerns the target T5, 5-HT2C (Homo sapiens, UniProt P28335).
T5 sequence (P28335 33-458): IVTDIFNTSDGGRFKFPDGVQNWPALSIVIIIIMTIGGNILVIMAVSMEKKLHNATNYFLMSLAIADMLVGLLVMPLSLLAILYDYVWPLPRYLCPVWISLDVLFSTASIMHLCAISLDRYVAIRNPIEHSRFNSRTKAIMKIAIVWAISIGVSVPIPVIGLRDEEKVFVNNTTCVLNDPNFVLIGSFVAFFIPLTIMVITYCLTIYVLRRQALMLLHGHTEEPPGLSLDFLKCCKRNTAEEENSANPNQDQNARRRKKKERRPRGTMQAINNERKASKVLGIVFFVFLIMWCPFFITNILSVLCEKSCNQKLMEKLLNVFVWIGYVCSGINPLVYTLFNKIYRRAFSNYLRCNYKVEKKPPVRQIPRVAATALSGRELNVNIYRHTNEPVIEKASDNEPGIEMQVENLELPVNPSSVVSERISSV
As to the kind of experiment: Competitive radioligand binding (NIMH PDSP). Further details: expressed in transfected cells.
Conditions: not given
As for the experimental part:
as §1
`COc1cc([N+](=O)[O-])c(OC)cc1CCN` [2C-N (1), 2-(2,5-dimethoxy-4-nitrophenyl)ethan-1-amine, reference compound] showed a Ki of 162 nM.

In turn, `COc1cc([N+](=O)[O-])c(OC)cc1CCNCc1cccc2ccccc12` [25N-N-1-Nap (16), [2-(2,5-dimethoxy-4-nitrophenyl)ethyl][(naphthalen-1-yl)methyl]amine] had a Ki of 4.27 nM. Against the preceding compound, the Ki is about 38-fold lower.

In a further assay the target is T4, 5-HT2B. As to the kind of experiment: Competitive radioligand binding (NIMH PDSP). Further details: expressed in transfected cells.
Conditions: not given
The procedure:
as §1
The compound `COc1cc([N+](=O)[O-])c(OC)cc1CCN` [2C-N (1), 2-(2,5-dimethoxy-4-nitrophenyl)ethan-1-amine, reference compound] gave a Ki of 123 nM.

On to `COc1cc([N+](=O)[O-])c(OC)cc1CCNCc1cccc2ccccc12` [25N-N-1-Nap (16), [2-(2,5-dimethoxy-4-nitrophenyl)ethyl][(naphthalen-1-yl)methyl]amine], for which affinity was put at a Ki of 1.17 nM.

The target of a further assay is T5, 5-HT2C. As to the kind of experiment: Ca2+ flux assay, 5-HT2C. Type of assay: cell-based. Details: expressed in transfected cells.
Conditions: not given
As for `COc1cc([N+](=O)[O-])c(OC)cc1CCNCc1cccc2ccccc12` [25N-N-1-Nap (16), [2-(2,5-dimethoxy-4-nitrophenyl)ethyl][(naphthalen-1-yl)methyl]amine], the “5-HT2C EC50, nM” value is on record as “No activity”.

Staying with this assay, now noted: 5-HT2C EC50, nM.
Compound `COc1cc([N+](=O)[O-])c(OC)cc1CCN` [2C-N (1), 2-(2,5-dimethoxy-4-nitrophenyl)ethan-1-amine, reference compound] gave an EC50 of 60.1 nM.

The same assay, now with this note: read-out: 5-HT2C Emax % 5-HT.
Take `COc1cc([N+](=O)[O-])c(OC)cc1CCN` [2C-N (1), 2-(2,5-dimethoxy-4-nitrophenyl)ethan-1-amine, reference compound]: the Emax amounted to 69 ± 2%.

`COc1cc([N+](=O)[O-])c(OC)cc1CCNCc1cccc2ccccc12` [25N-N-1-Nap (16), [2-(2,5-dimethoxy-4-nitrophenyl)ethyl][(naphthalen-1-yl)methyl]amine]: the Emax is below 10%.

The values are drawn from patent publication US20240254087A1, “SELECTIVE, PARTIAL, AND ARRESTIN-BIASED 5-HT2A AGONISTS WITH UTILITY IN VARIOUS DISORDERS” (Saint Joseph's University, priority 2021, published 2024).
